The values that follow come from patent EP2698155A1, “Pharmaceutical unit dosage form comprising 4-phenylbutyric acid” (priority 2012, dated 2014).

In this series the test system is adenocarcinoma of the prostate. The series is described as follows: Treatment of human patients with prostate cancer (case reports). Format: in vivo. The note with it: general statement. The method, then: Diseases that can be beneficially influenced by the present dosage form include in particular benign prostate hyperplasy, cancer, leukemias, cystic fibrosis, AIDS, kidney and liver diseases, thalassemia and urea cycle disorders. For example, the treatment of an adenocarcinoma of the prostate can be carried out by administering twice daily, e.g. in the morning and evening, a pharmaceutical tablet formulation containing 250 mg of sodium 4-phenylbutyrate. […] Treatment may be continued for several month or years until a satisfactory effect is observed or the patient is total free of the disease.
Following are descriptions of treatments and test results obtained from human patients.
Because of progressive bone pain they underwent bilateral orchiectomy in February 1996. They became free of pain until November 1998 when they again suffered bone pain mainly in their back. They were than treated orally twice daily with 250 mg of sodium phenylbutyrate retard tablets according to Example 1. Four weeks later they were free of pain. They stayed on this medication until June 2001 without any other symptoms of the prostate carcinoma. The PSA and the alkaline phosphatase were always within normal limits.
They stay now in complete unmaintained remission for 12 months.
This patient presented in March 1997 with a pathological fracture of the 8th thoracic vertebra caused by metastatic destruction. […]

On to `O=C([O-])CCCc1ccccc1.[Na+]` [sodium 4-phenylbutyrate], for which the “therapeutic effect (pain)” value (adenocarcinoma of the prostate, tablet with 250 mg twice daily, after treatment of about one month) is “pain disappears”. Also, the side effects entry (over a long period of treatment) is “no side effects”.
